Reference: PubChem BioAssay AID328 (DTP/NCI, 2004)
Values joined by “and” are separate entries in the source; they are usually repeats but may differ in a detail not shown here. Equal entries are not always repeated. Inconclusive results and toxic doses are left out.

Test system: BDF1 mice, P388 leukemia ip, median survival T/C
Test: NCI In Vivo Anticancer Drug Screen. Data for tumor model P388 Leukemia (intraperitoneal) in B6D2F1 (BDF1) mice
Settings: endpoint: median survival time, higher = longer survival
Method in brief: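 Steps: implant the tumour, treat one group with compound and another with vehicle, record survival, then divide treated by control.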

[1] = dose: 25.0 mg/kg/injection, schedule: Q04DX003 (ip), vehicle: saline with Tween-80
[2] = dose: 50.0 mg/kg/injection, schedule: Q04DX003 (ip), vehicle: saline with Tween-80
[3] = dose: 100.0 mg/kg/injection, schedule: Q04DX003 (ip), vehicle: saline with Tween-80
[4] = dose: 25.0 mg/kg/injection, schedule: Q01DX009 (ip), vehicle: saline with Tween-80
[5] = dose: 12.5 mg/kg/injection, schedule: Q01DX009 (ip), vehicle: saline with Tween-80

With C[N+]1(Cc2c[nH]c3ccsc23)CCCCC1 the T/C (dose: 3.0 mg/kg/injection, schedule: Q01DX009 (ip), vehicle: saline with Tween-80) was 87 % of control, the T/C (dose: 3.0 mg/kg/injection, schedule: Q04DX003 (ip), vehicle: saline with Tween-80) was 104 % of control and the T/C (dose: 6.0 mg/kg/injection, schedule: Q01DX009 (ip), vehicle: saline with Tween-80) was 91 % of control. The T/C (dose: 6.0 mg/kg/injection, schedule: Q04DX003 (ip), vehicle: saline with Tween-80) was 104 % of control, the T/C (dose: 12.0 mg/kg/injection, schedule: Q01DX009 (ip), vehicle: saline with Tween-80) was 100 % of control and the T/C (dose: 12.0 mg/kg/injection, schedule: Q04DX003 (ip), vehicle: saline with Tween-80) was 100 % of control.
With CSC(=S)N/N=C(\C)c1ccccn1 the T/C [1] was 92 % of control, the T/C [2] was 99 % of control and the T/C [3] was 106 % of control.
With Cc1ccc(S(=O)(=O)NCN2C(=O)c3ccccc3C2=O)cc1 the T/C (dose: 12.5 mg/kg/injection, schedule: Q01DX009 (ip), vehicle: Klucel (hydroxypropylcellulose) (HPC)) was 100 % of control, the T/C (dose: 25.0 mg/kg/injection, schedule: Q01DX009 (ip), vehicle: Klucel (hydroxypropylcellulose) (HPC)) was 100 % of control and the T/C [4] was 86 % of control. For the same compound, the T/C (dose: 50.0 mg/kg/injection, schedule: Q01DX009 (ip), vehicle: Klucel (hydroxypropylcellulose) (HPC)) was 105 % of control and the T/C (dose: 100.0 mg/kg/injection, schedule: Q01DX009 (ip), vehicle: saline) was 91 % of control.
O=C(O)c1cc(Br)ccc1OCc1cccc(Cl)c1 was tested, and the T/C [3] was 99 % of control.
In the case of CCCCCCc1nc2nc(Cl)c(Cl)nc2[nH]1, the T/C (dose: 0.78 mg/kg/injection, schedule: Q01DX009 (ip), vehicle: saline with Tween-80) is reported as 100 % of control, the T/C (dose: 1.56 mg/kg/injection, schedule: Q01DX009 (ip), vehicle: saline with Tween-80) is reported as 89 % of control and the T/C (dose: 3.12 mg/kg/injection, schedule: Q01DX009 (ip), vehicle: saline with Tween-80) is reported as 92 % of control. For the same compound, the T/C (dose: 6.25 mg/kg/injection, schedule: Q01DX009 (ip), vehicle: saline with Tween-80) was 92 % of control and the T/C [5] was 95 % of control.
For C[C@H]1C[C@@H]2[C@H]([C@@H](O)C[C@@]3(C)[C@H]2CC[C@]3(O)C(=O)CO)[C@@]2(C)C=CC(=O)C=C12, the T/C (dose: 200.0 mg/kg/injection, schedule: Q01DX009 (ip), vehicle: saline with Tween-80) was 104 % of control and the T/C (dose: 400.0 mg/kg/injection, schedule: Q01DX009 (ip), vehicle: saline with Tween-80) was 90 % of control.
CCCCC(I)C(C)(C)[n+]1ccccc1 (stereo not drawn) was tested, and the T/C (dose: 3.12 mg/kg/injection, schedule: Q04DX003 (ip), vehicle: saline with Tween-80) was 100 % of control, the T/C (dose: 6.25 mg/kg/injection, schedule: Q04DX003 (ip), vehicle: saline with Tween-80) was 95 % of control and the T/C [5] was 100 % of control. The T/C (dose: 12.5 mg/kg/injection, schedule: Q04DX003 (ip), vehicle: saline with Tween-80) was 87 % of control, the T/C [4] was 113 % of control and the T/C [1] was 103 % of control. For the same compound, the T/C [2] was 96 % of control.
With O=C1C(NCC(O)CO)=C(N2CC2)C(=O)C(NCC(O)CO)=C1N1CC1 (stereo not drawn) the T/C (dose: 0.5 mg/kg/injection, schedule: Q01DX009 (ip), vehicle: saline) was 98 % of control, the T/C (dose: 1.5 mg/kg/injection, schedule: Q01DX009 (ip), vehicle: saline) was 233 % of control and the T/C (dose: 2.0 mg/kg/injection, schedule: Q01DX009 (ip), vehicle: saline) was 116 % of control and 213 % of control. The T/C (dose: 4.0 mg/kg/injection, schedule: Q01DX009 (ip), vehicle: saline) was 241 % of control and 243 % of control and the T/C (dose: 6.0 mg/kg/injection, schedule: Q01DX009 (ip), vehicle: saline) was 107 % of control.
For COc1cc(Cc2nccc3cc(OC)c(OC)cc23)c(C(C)=O)c(OC)c1, the T/C (dose: 10.0 mg/kg/injection, schedule: Q01DX009 (ip), vehicle: saline) was 157 % of control and 190 % of control, the T/C (dose: 20.0 mg/kg/injection, schedule: Q01DX009 (ip), vehicle: saline) was 163 % of control and 170 % of control and the T/C (dose: 25.0 mg/kg/injection, schedule: Q04DX003 (ip), vehicle: saline) was 154 % of control. The T/C (dose: 50.0 mg/kg/injection, schedule: Q04DX003 (ip), vehicle: saline) was 157 % of control, the T/C (dose: 100.0 mg/kg/injection, schedule: Q04DX003 (ip), vehicle: saline) was 203 % of control and 206 % of control and the T/C (dose: 200.0 mg/kg/injection, schedule: Q04DX003 (ip), vehicle: saline) was 93 % of control.
With Cc1ccc(CC(N)c2nn[nH]n2)cc1 (stereo not drawn) the T/C [4] was 97 % of control, the T/C (dose: 50.0 mg/kg/injection, schedule: Q01DX009 (ip), vehicle: saline with Tween-80) was 105 % of control and the T/C (dose: 100.0 mg/kg/injection, schedule: Q01DX009 (ip), vehicle: saline with Tween-80) was 100 % of control.
